The nature of series [1]: Mutagenicity in Salmonella typhimurium TA102 assessed as increase in revertant colonies after 2 days in presence of rat liver S9 fraction by Ames test relative to control. Type of series: toxicity. The conditions noted are these: salmonella enterica subsp. enterica serovar typhimurium, s9, 48 h.
The nature of series [2]: Fraction unbound in mouse plasma. Type of series: ADME, cell-free.
Series [3] is described as follows: AUC in plasma of C/C-allele mouse harboring FVB.129(B6)-Smn1tm5(Smn1/SMN2)Mrph/J at 10 mg/kg, po. The format is ADME, organism-based.
Series [4] can be described thus: Unbound AUC in plasma of C/C-allele mouse harboring FVB.129(B6)-Smn1tm5(Smn1/SMN2)Mrph/J at 10 mg/kg, po. The settings on record: in vivo. Type of series: ADME, organism-based.
For series [5], the system named is Mus musculus. As to the kind of experiment: Inhibition of mRNA splicing of SMN2 exon 7 in C/C-allele mouse harboring FVB.129(B6) Smn1tm5(Smn1/SMN2)Mrph/J assessed as increase in SMN protein level in brain at 1 mg/kg, po qd for 10 days measured 1 hr after 10th dose by HTRF assay relative to control. Type of series: functional. More on the design: scale not given: the % may be the effect or the level left.

Series [6] can be described thus: AUC in plasma of wild type mouse at 3 mg/kg, ip measured on postnatal day 10. The format is ADME, organism-based.
Series [7] can be described thus: Unbound AUC in plasma of wild type mouse at 3 mg/kg, ip measured on postnatal day 10. The conditions noted are these: in vivo. Type of series: ADME, organism-based.
The subject of series [8] is Mus musculus. As to the kind of experiment: Inhibition of mRNA splicing of SMN2 exon 7 in neonatal delta7 mouse harboring FVB.Cg-Tg(SMN2 delta7)4299Ahmb Tg(SMN2)-89Ahmb Smn1tm1Msd/J assessed as increase in SMN protein level in brain at 3 mg/kg, ip qd administered from postnatal day 3 to postnatal day 9 measured 1 hr after last dose by HTRF assay relative to control. Type of series: functional. More on the design: scale not given: the % may be the effect or the level left.

Series [9] concerns Mus musculus. Kind of series: Inhibition of mRNA splicing of SMN2 exon 7 in neonatal delta7 mouse harboring FVB.Cg-Tg(SMN2 delta7)4299Ahmb Tg(SMN2)-89Ahmb Smn1tm1Msd/J assessed as increase in SMN protein level in quadriceps at 3 mg/kg, ip qd administered from postnatal day 3 to postnatal day 9 measured 1 hr after last dose by HTRF assay relative to control. The format is functional. More on the design: scale not given: the % may be the effect or the level left.

Series [10] has as its system Mus musculus. As to the kind of experiment: Inhibition of mRNA splicing of SMN2 exon 7 in neonatal delta7 mouse harboring FVB.Cg-Tg(SMN2 delta7)4299Ahmb Tg(SMN2)-89Ahmb Smn1tm1Msd/J assessed as increase in SMN protein level in quadriceps administered ip qd dosed from postnatal day 3 to postnatal day 9 measured 1 hr after last dose by HTRF assay. Type of series: functional, organism-based.

In series [11] the test system is Mus musculus. As to the kind of experiment: Increase in survival of ip dosed delta7 mouse harboring FVB.Cg-Tg(SMN2 delta7)4299Ahmb Tg(SMN2)89Ahmb Smn1tm1Msd/J administered intraperitoneally once daily from PND3 to PND23 followed by oral gavage dosing qd from PND24 to PND65. The format is functional, organism-based.
Series [12] concerns Mus musculus. As to the kind of experiment: Increase in survival of delta7 mouse harboring FVB.Cg-Tg(SMN2 delta7)4299Ahmb Tg(SMN2)89Ahmb Smn1tm1Msd/J assessed as mouse survival beyond PND50 at 1 to 3 mg/kg, ip qd administered from PND3 to PND23 followed by 1 to 3 mg/kg/day via oral gavage from PND24 to PND65. Type of series: functional.
In series [13] the test system is Mus musculus. Kind of series: Increase in survival of delta7 mouse harboring FVB.Cg-Tg(SMN2 delta7)4299Ahmb Tg(SMN2)89Ahmb Smn1tm1Msd/J assessed as mouse survival beyond PND60 at 3 to 10 mg/kg, ip qd administered from PND3 to PND23 followed by 3 to 10 mg/kg/day via oral gavage from PND24 to PND65. The format is functional.
In series [14] the test system is Mus musculus. Kind of series: Increase in body weight of delta7 mouse harboring FVB.Cg-Tg(SMN2 delta7)4299Ahmb Tg(SMN2)89Ahmb Smn1tm1Msd/J assessed as mouse body weight beyond PND50 at 1 to 3 mg/kg, ip qd administered from PND3 to PND23 followed by 1 to 3 mg/kg/day via oral gavage from PND24 to PND65. Type of series: functional, organism-based.
Series [15] concerns Mus musculus. As to the kind of experiment: Increase in body weight of delta7 mouse harboring FVB.Cg-Tg(SMN2 delta7)4299Ahmb Tg(SMN2)89Ahmb Smn1tm1Msd/J assessed as mouse body weight beyond PND60 at 3 to 10 mg/kg, ip qd administered from PND3 to PND23 followed by 3 to 10 mg/kg/day via oral gavage from PND24 to PND65. The format is functional, organism-based.
Series [16] is filed under the species Homo sapiens. Kind of series: Inhibition of mRNA splicing of SMN2 exon 7 in fibroblasts derived from human SMA type 1 patient assessed as increase in SMN protein level at 0.01 to 10 uM by HTRF assay.
Series [17] is filed under the species Homo sapiens. Kind of series: Inhibition of mRNA splicing of SMN2 exon 7 in spinal motor neurons derived from human SMA type 1/2 patient induced pluripotent stem cells assessed as increase in SMN protein level at 0.01 to 1 uM by HTRF assay. Also noted: scale not given: the % may be the effect or the level left.
The test system of series [18] is Mus musculus. As to the kind of experiment: Inhibition of mRNA splicing of human SMN2 exon 7 in transgenic SMA C/C-allele mouse brain administered orally qd for 10 days. The format is functional, organism-based.
Series [19] relates to Mus musculus. Kind of series: Inhibition of mRNA splicing of human SMN2 exon 7 in transgenic SMA C/C-allele mouse brain assessed as increase in SMN protein level administered orally qd for 10 days. Type of series: functional, organism-based.
A short description of series [20]: AUC in plasma of wild type mouse at 1 mg/kg, ip measured on postnatal day 10. Type of series: ADME, organism-based.
A short description of series [21]: Unbound AUC in plasma of wild type mouse at 1 mg/kg, ip measured on postnatal day 10. Type of series: ADME, organism-based. The conditions noted are these: in vivo.
Series [22] deals with Mus musculus. Kind of series: Inhibition of mRNA splicing of SMN2 exon 7 in neonatal delta7 mouse harboring FVB.Cg-Tg(SMN2 delta7)4299Ahmb Tg(SMN2)-89Ahmb Smn1tm1Msd/J assessed as increase in SMN protein level in brain at 0.1 mg/kg, ip qd administered from postnatal day 3 to postnatal day 9 measured 1 hr after last dose by HTRF assay relative to control. The format is functional. More on the design: scale not given: the % may be the effect or the level left.

Series [23] relates to Mus musculus. Kind of series: Inhibition of mRNA splicing of SMN2 exon 7 in neonatal delta7 mouse harboring FVB.Cg-Tg(SMN2 delta7)4299Ahmb Tg(SMN2)-89Ahmb Smn1tm1Msd/J assessed as increase in SMN protein level in quadriceps at 0.1 mg/kg, ip qd administered from postnatal day 3 to postnatal day 9 measured 1 hr after last dose by HTRF assay relative to control. The format is functional. Also noted: scale not given: the % may be the effect or the level left.

Series [24] has as its system Mus musculus. Kind of series: Increase in survival of delta7 mouse harboring FVB.Cg-Tg(SMN2 delta7)4299Ahmb Tg(SMN2)89Ahmb Smn1tm1Msd/J at 0.03 to 0.1 mg/kg, ip qd administered from PND3 to PND23 followed by 0.03 to 0.1 mg/kg/day via oral gavage from PND24 to PND65. The format is functional, organism-based.
Series [25] concerns Mus musculus. As to the kind of experiment: Increase in body weight of delta7 mouse harboring FVB.Cg-Tg(SMN2 delta7)4299Ahmb Tg(SMN2)89Ahmb Smn1tm1Msd/J at 0.03 to 0.1 mg/kg, ip qd administered from PND3 to PND23 followed by 0.03 to 0.1 mg/kg/day via oral gavage from PND24 to PND65. The format is functional, organism-based.

Calls of active or inactive are those of the source. The rule behind the calls is not given here.

Turning to `Cc1cn2cc(-c3cc(=O)n4cc(N5CCN(C)CC5)ccc4n3)cc(C)c2n1`, the Activity result is “Non-Toxic” in [1]; 0% in the series with Mus musculus [5]; 162% with Mus musculus [8]; 130% in the series with Mus musculus [9]; “Dose-dependent effect” with Mus musculus [11]. Also, the fraction unbound in series [2] was found to be 0.16. The exposure (AUC) in series [3] is 2500 ng·h/mL; in series [6] it was 1300 ng·h/mL. In addition, the fAUC in series [4] turned out to be 400 ng·h/mL; in series [7], 208 ng·h/mL. The inhibition entry with Mus musculus [10] was “Dose-dependent effect”. Besides, the Survival in the series with Mus musculus [12] and in the series on Mus musculus [13] was 80 - 90% in each case. Further, the result in the series with Mus musculus [14] and with Mus musculus [15] was Active.

Consider `CCc1nc(C)cn2nc(-c3cc(=O)n4cc(C5CCN(C)CC5)cc(C)c4n3)cc12`, for which the Activity result in [1] was “Non-Toxic”; in the series on Mus musculus [5] it was 7%; in the series with Mus musculus [8], 135%; in the series on Mus musculus [9] it was 160%; in the series with Mus musculus [11] it was “Dose-dependent effect”; in the series filed under Homo sapiens [17], 60 to 80%. This compound displayed a free fraction (fraction unbound) in [2] of 0.02. Besides, the AUC in series [3] turned out to be 33000 ng·h/mL; in series [6], 5900 ng·h/mL. In addition, the fAUC in series [4] came out at 660 ng·h/mL; in series [7] it was 118 ng·h/mL. In addition, the inhibition entry in the series on Mus musculus [10], with Mus musculus [18] and in the series with Mus musculus [19] was “Dose-dependent effect” throughout. Moreover, the Survival in the series with Mus musculus [12] and in the series with Mus musculus [13] was 80 - 90% each time. Also, the result with Mus musculus [14] and with Mus musculus [15] was Active. Also, in the series filed under Homo sapiens [16], the inhibition result is “Active”.

As to `Cc1cn2cc(-c3cc(=O)n4cc(N5CCN(C)CC5)ccc4n3)cc(F)c2n1`, the Activity entry in series [1] was “Non-Toxic”; in the series on Mus musculus [5], 42%; with Mus musculus [22], 72%; in the series with Mus musculus [23] it was 107%. This compound displayed a fraction unbound in [2] of 0.17. Also, the AUC in series [3] came to 2700 ng·h/mL; in [20] it was 4300 ng·h/mL. Moreover, the fAUC in [4] came to 450 ng·h/mL; in series [21], 721 ng·h/mL. Further, in the series with Mus musculus [10], the inhibition entry is “Dose-dependent effect”. The outcome in the series on Mus musculus [24] and in the series with Mus musculus [25] was Active.

Source of the values: ChEMBL document CHEMBL4477215, “Specific Correction of Alternative Survival Motor Neuron 2 Splicing by Small Molecules: Discovery of a Potential Novel Medicine To Treat Spinal Muscular Atrophy” (J Med Chem, 2016).
